Measurements from patent US9102636B2, “Analgesic compounds, compositions, and uses thereof” (Galleon Pharmaceuticals, Inc., priority 2010, dated 2015).
Several values for one entry are separate records, joined by “and”; a condition that tells them apart may be missing. Equal values may be shown once. Entries after “also recorded” stand apart in the source; their conditions may differ.

Tests used:
[1] = test system: FCA induced tactile allodynia; assay: FCA induced tactile allodynia (electronic von Frey); format: in vivo, rat
Procedure: Compound 2 was evaluated in the rat Freund's complete adjuvant (FCA) model of inflammatory pain. The rat Freund's complete adjuvant (FCA) intraplantar model of inflammatory pain produces behaviors similar to those observed in patients and has been widely used to assess novel pharmacological treatments (Lam et al., 2008, J Ethnopharmacol. 120:44-50). The positive control was celecoxib (TRC, Montreal), and the negative control was vehicle (0.5% methyl cellulose, in phosphate buffered saline). […] The Hargreaves apparatus was obtained from Ugo Basile, Italy. The Freund's complete adjuvant was obtained from Sigma, St. Louis, and the electronic von frey was obtained from Stoelting, Ill. For this assay, paw withdrawal latency to a thermal stimulus was assessed using a radiant heat source (Ugo Basile, Italy) aimed at the plantar surface of the left hind paw (Hargreaves test; […] Paw withdrawal thresholds to a non-noxious tactile stimulus was assessed using an electronic von Frey apparatus that presented an increasing mechanical force to the plantar surface of the hind paw. Paw volume was measured by displacement of water and assuming a tissue density equal to that of water. […] Celecoxib (30 mg/kg p.o.) served as the positive control. […] After induction of anesthesia, the injection site was prepared in a sterile manner and 100 μl of a 50% suspension of FCA injected. After injection, animals were weighed and allowed to recover before being returned to their home cages. Statistical significance was determined on untransformed data using a two-way analysis of variance (Graphpad Prism, NC). Significant main effects were analyzed further by subsequent Bonferronni post-hoc test. The level of significance was set at p<0.05. Data are shown as mean±S.E.M. (with an asterisk to denote significance as compared to vehicle treated controls).

ataxia (rotarod) = assay: Accelerating rotarod assay of ataxia (latency to fall); format: in vivo, rat; details: for Latency to fall: maximum 300 seconds, individual animals
Procedure: Compound 2 was evaluated in a rat accelerating rotarod model of ataxia. Ataxia is a common clinical problem with CNS-active compounds and can often confound interpretation of efficacy in preclinical pain models. The rotarod assay of ataxia has been widely used to assess the side-effect liability of novel pharmacological treatments (Jones & Roberts, 1968, J. Pharm. […] The positive control was haloperidol (Sigma, St. […] Male Sprague-Dawley Rats (Harlan, Ill.) were 250-300 g at time of dosing. Rotarod was obtained from IITC, CA. To examine the potential effects of Compound 2 on motor performance, rats were tested on an accelerating rotarod (IITC, Ca). […] Rats received two timed training trials (averaged to give the reported baseline) on the first day, then 24 hr later rats were administered Compound 2 (30, 100 and 300 mg/kg, p.o.), haloperidol (3 mg/kg, p.o.), the positive control, or vehicle. […] Statistical significance was determined on untransformed data using a two-way analysis of variance (Graphpad Prism, NC). Significant main effects were analyzed further by subsequent Bonferronni post-hoc test. The level of significance was set at p<0.05. Data are shown as mean±S.E.M. (with an asterisk to denote significance as compared to vehicle treated controls).

[2] = test system: Carrageenan-induced edema; assay: Carrageenan-induced edema (paw volume); format: in vivo, rat
Procedure: The effect of Compound 2 in the rat carrageenan model of acute inflammatory pain was evaluated. The intraplantar carrageenan model of acute inflammatory pain in the rat results in behaviors similar to that observed in patients and has been widely used to assess novel pharmacological treatments (Whiteside et al., 2005, J. Pharmacol. Exp. Ther. 314:1234-1240). The objective of this study was to evaluate the ability of Compound 2 to reverse or prevent development of thermal hyperalgesia and edema in the rat carrageenan model of acute inflammatory pain. The positive control was indomethacin (Sigma, St. Louis), and the negative control was vehicle (0.5% methyl cellulose). […] The Hargreaves apparatus was obtained from Ugo Basile, Italy, and the lamba-carrageenan was obtained from Sigma, St. Louis. For this assay, paw withdrawal latency to a thermal stimulus was assessed using a radiant heat source (Ugo Basile, Italy) aimed at the plantar surface of the left hind paw (Hargreaves test). […] Paw volume was measured by displacement of water and assuming a tissue density equal to that of water. Baseline latencies were taken prior to carrageenan administration and re-assessed 4 h later. […] Indomethacin (positive control, 30 mg/kg p.o.) was administered prior to carrageenan and behavior assessed 4 hrs post-carrageenan. […] After induction of anesthesia, the injection site was prepared in a sterile manner and 50 μl of a 2% Jamba-carrageenan was injected. After injection, animals were weighed and allowed to recover before being returned to their home cages. Statistical significance was determined on untransformed data using a two-way analysis of variance (Graphpad Prism, NC). Significant main effects were analyzed further by subsequent Bonferronni post-hoc test. The level of significance was set at p<0.05. Data are shown as mean±S.E.M. (with an asterisk to denote significance as compared to vehicle treated controls).

[3] = test system: hyperalgesia following incisional surgery; assay: Incisional hyperalgesia, dosing at conclusion of surgery; format: in vivo; details: rat; IV at conclusion of surgical incision; FIG. 9

CC1(C)SC(Nc2ccccc2O)=N[C@@H]1C(=O)O [Compound 2, (R)-2-(2-hydroxyphenylamino)-thiazoline-5,5-dimethyl-4-carboxylic acid] was tested, and the “Paw withdrawl threshold” value ([1]; 30 (min post-dose), 30 mg/kg p.o. 24 hours post-FCA, 30 mg/kg) was 19.3 g and 32.6 g and 27.3 g and 30.2 g and 26.3 g and 19.5 g, the “Paw withdrawl threshold” value ([1]; 30 (min post-dose), 100 mg/kg p.o. 24 hours post-FCA, 100 mg/kg) was 28.6 g and 27.9 g and 19.3 g and 34.6 g and 31.6 g and 21 g and the “Paw withdrawl threshold” value ([1]; 60 (min post-dose), 3 mg/kg p.o. 24 hours post-FCA, 3 mg/kg) was 22 g and 16.5 g and 21.4 g and 15.7 g and 22.3 g and 18 g. For the same compound, the “Paw withdrawl threshold” value ([1]; 60 (min post-dose), 30 mg/kg p.o. 24 hours post-FCA, 30 mg/kg) was 24 g and 24.2 g and 26.5 g and 21.6 g and 27.4 g and 31.1 g, the “Paw withdrawl threshold” value ([1]; 60 (min post-dose), 100 mg/kg p.o. 24 hours post-FCA, 100 mg/kg) was 31.2 g and 27.5 g and 35.3 g and 29.1 g and 30.3 g and 34.6 g and the “Paw withdrawl threshold” value ([1]; BL(D1), 24 hours post-FCA before dosing, 3 mg/kg group, 3 mg/kg) was 20.5 g and 15.3 g and 18.5 g and 16.5 g and 17.3 g and 15.8 g. The “Paw withdrawl threshold” value ([1]; BL(D1), 24 hours post-FCA before dosing, 30 mg/kg group, 30 mg/kg) was 15 g and 19.2 g and 18.2 g and 22.5 g and 17.8 g and 16.5 g, the “Paw withdrawl threshold” value ([1]; BL(D1), 24 hours post-FCA before dosing, 100 mg/kg group, 100 mg/kg) was 12.8 g and 13.9 g and 16 g and 19.3 g and 23.51 g and 12.6 g and the “Paw withdrawl threshold” value ([1]; baseline (pre-FCA), 3 mg/kg group, individual rats, 3 mg/kg) was 36.1 g and 32.4 g and 35.8 g and 33.4 g and 34.4 g and 30.9 g. For the same compound, the “Paw withdrawl threshold” value ([1]; baseline (pre-FCA), 10 mg/kg group, individual rats, 10 mg/kg) was 28.6 g and 26.67 g and 37.9 g and 31.3 g and 39 g and 31.8 g, the “Paw withdrawl threshold” value ([1]; baseline (pre-FCA), 30 mg/kg group, individual rats, 30 mg/kg) was 33.2 g and 34.9 g (2×) and 36.6 g and 35.6 g and 33.4 g and the “Paw withdrawl threshold” value ([1]; baseline (pre-FCA), 100 mg/kg group, individual rats, 100 mg/kg) was 31.8 g and 26.6 g and 27.6 g and 33.33 g and 37.8 g and 31.9 g. The “Paw withdrawal latency (s), FIG. 18B” value ([1]; baseline (prior to FCA), individual rats) was 29.6 s (2×) and 32.5 s and 29.8 s and 27.5 s and 31.4 s, the “Paw withdrawal latency (s), FIG. 18B” value ([1]; day 1, compound 2 25 mg/kg i.v. preemptive, individual rats, 25 mg/kg) was 36.7 s and 26.7 s and 38.9 s and 25 s and 27 s and 29 s and the “Paw withdrawal latency (s), FIG. 18B” value ([1]; day 3, compound 2 25 mg/kg i.v. preemptive, individual rats, 25 mg/kg) was 29.8 s and 28 s and 30 s and 27.7 s and 23.5 s and 33.8 s. For the same compound, the “Paw withdrawal latency (s), FIG. 18B” value ([1]; day 4, compound 2 25 mg/kg i.v. preemptive, individual rats, 25 mg/kg) was 25 s and 27.23 s and 36.5 s and 31.3 s and 31.9 s and 24.3 s, the “reversal of FCA-induced tactile allodynia (finding in words)” value ([1]; rat, 3, 10, 30 and 100 mg/kg p.o. curative, 24 hours post-FCA, significant at 10, 30 and 100 mg/kg, 30 and 60 minutes) was “significant reversal of FCA induced tactile allodynia; also recorded: able to reverse established inflammatory tactile allodynia; also recorded: significantly reversed” and the “FCA-induced tactile allodynia (finding in words)” value ([1]; rat, p.o. single dose 25 mg/kg preemptive) was “significantly prevented”. For the same compound, the “FCA tactile allodynia (finding in words)” value ([1]; rat, single dose 25 mg/kg i.v. preemptive, significant 24, 48 and 72 hours post-FCA, 25 mg/kg) was “prevented the development; also recorded: significantly prevented”, the “Latency to fall” value (ataxia (rotarod); compound 2 30 mg/kg p.o., Baseline, 30 mg/kg) was 70 sec and 108.5 sec and 72 sec and 68 sec (2×) and 52 sec and 49 sec and 60.5 sec and 48.5 sec and 47.5 sec (2×) and 97 sec and the “Latency to fall” value (ataxia (rotarod); compound 2 30 mg/kg p.o., Post-Drug (1 hr), 30 mg/kg) was 39 s and 99 s and 72 s and 94 s and 66 s and 81 s and 133 s and 120 s and 56 s and 115 s and 50 s and 70 s. The “Latency to fall” value (ataxia (rotarod); compound 2 100 mg/kg p.o., Baseline, 100 mg/kg) was 43.5 s and 75.5 s and 55 s and 63 s and 60.5 s and 73.5 s and 73 s and 72 s and 54.5 s and 54 s and 46.5 s and 53 s, the “Latency to fall” value (ataxia (rotarod); compound 2 100 mg/kg p.o., Post-Drug (1 hr), 100 mg/kg) was 86 sec and 64 sec and 45 sec (2×) and 111 sec and 91 sec and 221 sec and 72 sec (2×) and 66 sec and 20 sec and 199 sec and the “Latency to fall” value (ataxia (rotarod); compound 2 300 mg/kg p.o., Baseline, 300 mg/kg) was 84 sec and 76.5 sec and 57 sec and 86.5 sec (2×) and 81.5 sec and 79 sec and 71.5 sec and 61 sec and 97.5 sec and 89 sec. The “Latency to fall” value (ataxia (rotarod); compound 2 300 mg/kg p.o., Post-Drug (1 hr), 300 mg/kg) was 184 sec (2×) and 55 sec (2×) and 112 sec and 105 sec and 124 sec and 175 sec and 43 sec and 131 sec and 78 sec, the “latency to fall, accelerating rotarod (finding in words)” value (ataxia (rotarod); rat, 30, 100 and 300 mg/kg p.o., 1 hr post-dosing) was “did not significantly decrease latency to fall; also recorded: did not significantly reduce latency to fall” and the “Paw volume” value ([2]; 1 hr post-drug, compound 2 10 mg/kg p.o. 3 hrs after carrageenan (curative), FIG. 21B, 10 mg/kg) was 2.6 mL and 2.9 mL and 2.5 mL and 2.7 mL. The “Paw volume” value ([2]; 1 hr post-drug, compound 2 30 mg/kg p.o. 3 hrs after carrageenan (curative), FIG. 21B, 30 mg/kg) was 2.4 mL and 2.6 mL and 2.5 mL and 2.9 mL and 2.3 mL, the “Paw volume” value ([2]; Pre-Cg, compound 2 10 mg/kg group, individual rats, FIG. 21B, 10 mg/kg) was 1.7 mL (2×) and 1.8 mL (3×) and 1.6 mL and the “Paw volume” value ([2]; Pre-Cg, compound 2 30 mg/kg group, individual rats, FIG. 21B, 30 mg/kg) was 1.6 mL (3×) and 1.7 mL (2×) and 1.8 mL and 1.5 mL. For the same compound, the “Paw volume” value ([2]; compound 2 10 mg/kg p.o. preemptive, 4 hr post-drug, individual animals, 10 mg/kg) was 3.3 mL and 2.8 mL (2×) and 3.2 mL and 3.1 mL and 2.9 mL, the “Paw volume” value ([2]; compound 2 10 mg/kg p.o. preemptive, Pre-Cg, individual animals, 10 mg/kg) was 1.7 mL (2×) and 1.6 mL (3×) and 1.5 mL and the “Paw volume” value ([2]; compound 2 30 mg/kg p.o. preemptive, 4 hr post-drug, individual animals, 30 mg/kg) was 2.9 mL and 2.7 mL (4×) and 2.8 mL. For the same compound, the “Paw volume” value ([2]; compound 2 30 mg/kg p.o. preemptive, Pre-Cg, individual animals, 30 mg/kg) was 1.7 mL (3×) and 1.6 mL (2×) and 1.8 mL, the “carrageenan-induced edema, preemptive (finding in words)” value ([2]; rat, 10 and 30 mg/kg p.o. 15 minutes prior to carrageenan) was “did not significantly prevent” and the “carrageenan-induced edema, curative (finding in words)” value ([2]; rat, p.o. 3 hours post-carrageenan, significant at 30 mg/kg, 30 mg/kg) was “significantly reversed edema”. For the same compound, the “development of hyperalgesia following incisional surgery” value [3] was “inhibits the development of hyperalgesia following incisional surgery”.
